ChEMBL document CHEMBL4145495, “Development of novel oxazolo[5,4-d]pyrimidines as competitive CB2 neutral antagonists based on scaffold hopping” (Eur J Med Chem, 2018)
pIC50, pKi: −log10 of the molar value.

Tests used:
Cannabinoid receptor 1 = Cannabinoid receptor 1 (Homo sapiens, UniProt P21554); assay: Displacement of [3H]-CP-55940 from human CB1 expressed in CHO cells after 90 mins by TopCount scintillation counting method; assay type: cell-based
Cannabinoid receptor 2 [1] = target: T1, Cannabinoid receptor 2 (Homo sapiens, UniProt P34972); assay: Displacement of [3H]-CP-55940 from human CB2 expressed in CHO cells after 90 mins by TopCount scintillation counting method; assay type: cell-based
T1 sequence (P34972 whole entry): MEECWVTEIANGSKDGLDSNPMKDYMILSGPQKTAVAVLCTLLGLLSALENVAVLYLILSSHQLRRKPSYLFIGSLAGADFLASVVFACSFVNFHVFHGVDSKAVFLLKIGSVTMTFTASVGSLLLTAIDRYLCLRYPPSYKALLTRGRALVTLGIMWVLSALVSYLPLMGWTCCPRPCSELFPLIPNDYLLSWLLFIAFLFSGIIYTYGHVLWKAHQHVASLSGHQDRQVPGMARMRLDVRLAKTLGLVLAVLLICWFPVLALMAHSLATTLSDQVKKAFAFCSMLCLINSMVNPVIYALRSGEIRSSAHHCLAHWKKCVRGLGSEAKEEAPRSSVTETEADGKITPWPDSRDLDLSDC

[2] = Cytotoxicity against human HT-29 cells assessed as cell growth inhibition at 10 uM after 72 hrs by MTS assay; assay type: cell-based; details: read-out: GI
[3] = Cytotoxicity against CB2-expressing CHO cells assessed as cell growth inhibition at 10 uM after 72 hrs by MTS assay; assay type: cell-based, Cricetulus griseus; details: chinese hamster, read-out: GI
[4] = Cytotoxicity against wild-type CHO cells assessed as cell growth inhibition at 10 uM after 72 hrs by MTS assay; assay type: cell-based, Cricetulus griseus; details: chinese hamster, read-out: GI
[5] = Half life in CD1 mouse liver microsomes at 1 uM up to 40 mins by UPLC-MS/MS analysis; assay type: ADME, microsome
Cannabinoid receptor 2 [6] = target: T1, Cannabinoid receptor 2; assay: Neutral antagonist activity at human CB2 assessed as inhibition of WIN552122-induced suppression of cAMP formation preincubated for 15 mins followed by forskolin addition for 30 mins measured after 1 hr by HTRF assay; assay type: functional
Cannabinoid receptor 2 [7] = target: T1, Cannabinoid receptor 2; assay: Neutral antagonist activity at human CB2 assessed as restoration of forskolin-induced cAMP formation preincubated for 15 mins followed by forskolin addition for 30 mins measured after 1 hr by HTRF assay; assay type: functional
Homo sapiens = species: Homo sapiens; assay: Selectivity index, ratio of Ki for human CB1 to Ki for human CB2
[8] = Intrinsic clearance in CD1 mouse liver microsomes at 1 uM up to 40 mins by UPLC-MS/MS analysis; assay type: ADME, microsome; details: read-out: CLH
[9] = Half life in CD1 mouse liver microsomes at 200 nM up to 40 mins by UPLC-MS/MS analysis; assay type: ADME, microsome
[10] = Intrinsic clearance in CD1 mouse liver microsomes at 200 nM up to 40 mins by UPLC-MS/MS analysis; assay type: ADME, microsome; details: read-out: CLH

Sequence of Cannabinoid receptor 1 (P21554 whole entry): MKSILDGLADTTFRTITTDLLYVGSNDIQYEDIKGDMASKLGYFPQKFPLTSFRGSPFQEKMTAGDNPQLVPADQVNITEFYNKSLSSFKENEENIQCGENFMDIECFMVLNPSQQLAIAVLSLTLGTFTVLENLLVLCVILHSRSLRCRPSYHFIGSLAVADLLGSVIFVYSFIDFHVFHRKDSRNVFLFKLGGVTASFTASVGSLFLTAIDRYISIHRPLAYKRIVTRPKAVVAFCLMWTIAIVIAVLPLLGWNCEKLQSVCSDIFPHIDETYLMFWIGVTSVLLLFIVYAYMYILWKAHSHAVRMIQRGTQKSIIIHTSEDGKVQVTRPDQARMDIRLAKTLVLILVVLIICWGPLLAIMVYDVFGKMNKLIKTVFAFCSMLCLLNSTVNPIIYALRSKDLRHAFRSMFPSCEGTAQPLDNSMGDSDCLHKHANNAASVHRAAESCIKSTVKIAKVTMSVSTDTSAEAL

Compound	pKi (Cannabinoid receptor 1)	pKi (Cannabinoid receptor 2 [1])	inhibition at 72 h, 10 µM [2]	inhibition at 72 h, 10 µM [3]	inhibition at 72 h, 10 µM [4]	half-life at 1 µM [5]	pIC50 (Cannabinoid receptor 2 [6])	pIC50 (Cannabinoid receptor 2 [7])	Ratio Ki (Homo sapiens)	microsomal CLint at 1 µM [8]	half-life at 0.2 µM [9]	microsomal CLint at 0.2 µM [10]
CCCCNc1ncnc2oc(-c3ccccc3Cl)nc12	< 6.00	< 6.00	0%	18%	0%							
CN1CCN(c2ncnc3oc(-c4ccccc4F)nc23)CC1	< 6.00	< 6.00	0%	7%	8%							
Cc1nc(N2CCN(C)CC2)c2nc(-c3ccccc3Cl)oc2n1	< 6.00	7.56	24%	4%	0%	4.1 min	6.03	6.03	> 36.3	502 µL/min/mg		
CN1CCN(c2ncnc3oc(-c4ccccc4)nc23)CC1	< 6.00	< 6.00	0%	0%	0%							
CCN1CCN(c2ncnc3oc(-c4ccccc4)nc23)CC1	< 6.00	< 6.00	0%	0%	0%							
CN1CCN(c2ncnc3oc(-c4ccccc4Cl)nc23)CC1	< 6.00	6.46	8%	0%	0%				> 2.8		1.3 min	1180 µL/min/mg
CN1CCN(c2ncnc3oc(-c4ccccc4C(F)(F)F)nc23)CC1	< 6.00	6.81	0%	0%	3%	0.9 min			> 6.4	1260 µL/min/mg		
CCN1CCN(c2nc(C)nc3[nH]c(-c4ccccc4Cl)nc23)CC1			0%	0%	30%	44 min				54 µL/min/mg		
Clc1ccccc1-c1nc2c(NCC3CCCCC3)ncnc2o1	< 6.00	< 6.00	0%	10%	0%							
Clc1ccccc1-c1nc2c(NCC3CCNCC3)ncnc2o1	< 6.00	< 6.00	41%	9%	0%							
CCN1CCN(c2ncnc3oc(-c4ccccc4Cl)nc23)CC1	< 6.00	6.48	4%	9%	1%	1.2 min			> 3	1100 µL/min/mg		
CCCCCNc1ncnc2oc(-c3ccccc3Cl)nc12	< 6.00	< 6.00	10%	13%	6%							
Clc1ccccc1-c1nc2c(N3CCOCC3)ncnc2o1	< 6.00	< 6.00	5%	10%	0%							
CCN1CCN(c2ncnc3oc(-c4ccccc4F)nc23)CC1	< 6.00	< 6.00	24%	8%	10%							
CCN1CCN(c2nc(C)nc3oc(-c4ccccc4Cl)nc23)CC1	6.53	7.64	16%	16%	0%	8.1 min	6.92	6.92	12.7	263 µL/min/mg		
CCCN1CCN(c2ncnc3oc(-c4ccccc4Cl)nc23)CC1	< 6.00	< 6.00	0%	2%	0%							
COCCNc1ncnc2oc(-c3ccccc3Cl)nc12	< 6.00	< 6.00	0%	0%	0%							
CC(=O)N1CCN(c2ncnc3oc(-c4ccccc4Cl)nc23)CC1	< 6.00	6.17	0%	11%	23%				> 1.4		12.2 min	194 µL/min/mg
CC(=O)N1CCN(c2ncnc3oc(-c4ccccc4C(F)(F)F)nc23)CC1	< 6.00	6.60	12%	1%	12%	12.5 min			> 3.9	174 µL/min/mg		
CCN1CCN(c2ncnc3oc(-c4ccccc4C(F)(F)F)nc23)CC1	< 6.00	7.02	1%	5%	10%	1 min			> 10.4	1240 µL/min/mg		
COc1ccc(C(=O)c2c(C)n(CCN3CCOCC3)c3cc(I)ccc23)cc1		7.04	0%	0%	0%							
